32 compounds from patent publication US20090124672A1 (priority 2007, published 2009) can be followed below.

What is called IC50 is the point on the concentration scale where inhibition reaches its midpoint. By inhibition is commonly meant the change of the read-out against control, counted positive when it falls.

One experiment concerns the target T1, hALDH2 (recombinant human mitochondria ALDH) (Homo sapiens, UniProt P05091).
T1 sequence (P05091 18-517): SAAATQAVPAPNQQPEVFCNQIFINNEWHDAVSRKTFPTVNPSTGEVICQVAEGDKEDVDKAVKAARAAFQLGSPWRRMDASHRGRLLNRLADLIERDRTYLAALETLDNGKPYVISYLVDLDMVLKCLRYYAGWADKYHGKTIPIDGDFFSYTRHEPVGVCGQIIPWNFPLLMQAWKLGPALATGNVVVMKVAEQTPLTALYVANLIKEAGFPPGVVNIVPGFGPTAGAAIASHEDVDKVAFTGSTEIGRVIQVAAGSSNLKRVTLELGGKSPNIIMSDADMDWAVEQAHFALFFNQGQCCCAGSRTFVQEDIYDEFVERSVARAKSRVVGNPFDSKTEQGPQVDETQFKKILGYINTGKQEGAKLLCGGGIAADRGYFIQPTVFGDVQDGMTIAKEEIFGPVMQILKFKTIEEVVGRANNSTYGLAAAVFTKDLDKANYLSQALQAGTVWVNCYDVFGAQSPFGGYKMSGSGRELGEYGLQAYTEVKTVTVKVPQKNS
Put plainly: ALDH2 inhibition assay (NADH formation, formaldehyde substrate).
Details: not given
The format is biochemical. How it is done: ALDH2 inhibition assays were performed in sodium phosphate buffer (50 mM, pH 7.4) containing 1.2 mM NAD^+ (Sigma N7004), 1 nM hALDH2 (recombinant human mitochondria ALDH), various concentrations of test compounds (from 0.03 nM to 1000 nM), and 0.15 mM freshly prepared formaldehyde solution (Ladd Research 20295). Reactions were initiated by the addition of formaldehyde and rates were recorded by monitoring NADH formation in a temperature controlled (25° C.) FluoroMax-2 Fluorimeter with excitation and emission wavelengths set at 340 and 460 nm, respectively. […] Normally, IC50 values were determined by fitting concentration-inhibition data to sigmoidal dose-response curves with two-floating parameters: IC50 and Hill coefficient. When tight binding situation was suspected, apparent Ki values were estimated by fitting dose-response data to Morrison's equation [Methods in Enzymology 63, 437-467, 1979].
For the compound `O=c1c(-c2ccc(O)cc2)coc2cc(OCc3cc(-c4cc(C(F)(F)F)cc(C(F)(F)F)c4)on3)ccc12` [PT-62, 7-({5-[3,5-bis(trifluoromethyl)phenyl]isoxazol-3-yl}methoxy)-3-(4-hydroxyphenyl)chromen-4-one], the IC50 is 72 nM. Same read-out and setting: the value for `N#Cc1cccc(COc2ccc3c(=O)c(-c4ccc(O)cc4)coc3c2)c1` [PT-25, 3-{[3-(4-hydroxyphenyl)-4-oxochromen-7-yloxy]methyl}benzenecarbonitrile] was 4 nM; that for `COc1ccc2c(COc3ccc4c(=O)c(-c5ccc(O)cc5)coc4c3)cc(=O)oc2c1` [PT-119, 4-{[3-(4-hydroxyphenyl)-4-oxochromen-7-yloxy]methyl}-7-methoxychromen-2-one] was 68 nM; that for `O=c1c(-c2ccc(O)cc2)coc2cc(OCc3noc(-c4ccc(C(F)(F)F)cc4)n3)ccc12` [PT-38, 3-(4-hydroxyphenyl)-7-({5-[4-(trifluoromethyl)phenyl](1,2,4-oxadiazol-3-yl)}methoxy)chromen-4-one] was 600 nM. `O=c1c(-c2ccc(O)cc2)coc2cc(OCc3cccc(C(F)(F)F)c3)ccc12` [PT-26, 3-(4-hydroxyphenyl)-7-{[3-(trifluoromethyl)phenyl]methoxy}chromen-4-one]: the IC50 was 34 nM. Same read-out and setting: under `O=C(O)c1cnc(COc2ccc3c(=O)c(-c4ccc(O)cc4)coc3c2)o1` [PT-49, 2-{[3-(4-hydroxyphenyl)-4-oxochromen-7-yloxy]methyl}-1,3-oxazole-5-carboxylic acid] stands 16 nM; under `O=C(COc1ccc2c(=O)c(-c3ccc(O)cc3)coc2c1)c1cccc(F)c1` [PT-78, 7-[2-(3-fluorophenyl)-2-oxoethoxy]-3-(4-hydroxyphenyl)chromen-4-one], 139 nM; under `NC(=O)c1ccc(COc2ccc3c(=O)c(-c4ccc(O)cc4)coc3c2)cc1` [PT-37, 4-{[3-(4-hydroxyphenyl)-4-oxochromen-7-yloxy]methyl}benzamide], 380 nM. For the compound `Cc1nc(-c2ccc(C(F)(F)F)cc2)sc1COc1ccc2c(=O)c(-c3ccc(O)cc3)coc2c1` [PT-4, 3-(4-hydroxyphenyl)-7-({4-methyl-2-[4-(trifluoromethyl)phenyl](1,3-thiazol-5-yl)}methoxy)chromen-4-one], the IC50 was 200 nM. Still for that read-out and setting: under `O=c1c(-c2ccc(O)cc2)coc2cc(OCNCc3cccc(C(F)(F)F)c3)ccc12` [PT-54, 3-(4-hydroxyphenyl)-7-[({[3-(trifluoromethyl)phenyl]methyl}amino)methoxy]chromen-4-one] stands 5 nM; under `O=c1c(-c2ccc(O)cc2)coc2cc(OCCNCc3cccc(C(F)(F)F)c3)ccc12` [PT-99, 3-(4-hydroxyphenyl)-7-[2-({[3-(trifluoromethyl)phenyl]methyl}amino)ethoxy]chromen-4-one], 5 nM; under `CCOC(=O)c1cnn(CCOc2ccc3c(=O)c(-c4ccc(O)cc4)coc3c2)c1` [PT-122, ethyl 1-{2-[3-(4-hydroxyphenyl)-4-oxochromen-7-yloxy]ethyl}pyrazole-4-carboxylate], 12 nM.

`N#Cc1ccc(-c2coc3cc(OCc4cc(-c5cccc(C(F)(F)F)c5)no4)ccc3c2=O)cc1` [PT-69, 4-[4-oxo-7-({3-[3-(trifluoromethyl)phenyl]isoxazol-5-yl}methoxy)chromen-3-yl]benzenecarbonitrile]: the concentration for half-maximal inhibition (IC50) came out at 180 nM. Same read-out and setting: the value for `O=c1c(-c2ccc(O)cc2)coc2cc(OCc3coc(-c4cc(F)cc(F)c4)n3)ccc12` [PT-14, 7-{[2-(3,5-difluorophenyl)(1,3-oxazol-4-yl)]methoxy}-3-(4-hydroxyphenyl)chromen-4-one] was 60 nM. As for `O=c1c(-c2ccc(O)cc2)coc2cc(OCc3coc(-c4ccc(F)c(F)c4)n3)ccc12` [PT-15, 7-{[2-(3,4-difluorophenyl)(1,3-oxazol-4-yl)]methoxy}-3-(4-hydroxyphenyl)chromen-4-one], the IC50 came out at 120 nM. For the compound `O=c1c(-c2ccc(O)cc2)coc2cc(OCc3nc(-c4ccccc4)no3)ccc12` [PT-43, 3-(4-hydroxyphenyl)-7-[(3-phenyl(1,2,4-oxadiazol-5-yl))methoxy]chromen-4-one], the IC50 turned out to be 470 nM. Take `O=c1c(-c2ccc(O)cc2)coc2cc(OCc3coc(-c4cc(F)cc(C(F)(F)F)c4)n3)ccc12` [PT-13, 7-({2-[5-fluoro-3-(trifluoromethyl)phenyl](1,3-oxazol-4-yl)}methoxy)-3-(4-hydroxyphenyl)chromen-4-one]: the IC50 was 20 nM. Same read-out and setting: under `C=CCOC(=O)c1cccc(-c2nc(COc3ccc4c(=O)c(-c5ccc(O)cc5)coc4c3)no2)c1` [PT-32, prop-2-enyl 3-(3-{[3-(4-hydroxyphenyl)-4-oxochromen-7-yloxy]methyl}-1,2,4-oxadiazol-5-yl)benzoate] stands 1150 nM; under “3-(4-hydroxyphenyl)-7-[(6-pyrazolyl(3-pyridyl))methoxy]chromen-4-one [PT-52]”, 10 nM; under `COc1ccc(-c2nc(COc3ccc4c(=O)c(-c5ccc(O)cc5)coc4c3)no2)cc1C(F)(F)F`, 20 nM. Still for that read-out and setting: under `CNC(=O)c1coc(COc2ccc3c(=O)c(-c4ccc(O)cc4)coc3c2)n1` [PT-118, (2-{[3-(4-hydroxyphenyl)-4-oxochromen-7-yloxy]methyl}(1,3-oxazol-4-yl))-N-methylcarboxamide] stands 23 nM; under `N#Cc1cccc(-c2nc(COc3ccc4c(=O)c(-c5ccc(O)cc5)coc4c3)no2)c1` [PT-40, 3-(3-{[3-(4-hydroxyphenyl)-4-oxochromen-7-yloxy]methyl}-1,2,4-oxadiazol-5-yl)benzenecarbonitrile], 22 nM. Still for that read-out and setting: under `O=c1c(-c2ccc(O)cc2)coc2cc(OCc3cc(F)cc(C(F)(F)F)c3)ccc12` [PT-28, 7-{[3-fluoro-5-(trifluoromethyl)phenyl]methoxy}-3-(4-hydroxyphenyl)chromen-4-one] stands 58 nM; under “7-{3-[4-(4-chlorophenyl)pyrazolyl]propoxy}-3-(4-hydroxyphenyl)chromen-4-one [PT-106]”, 110 nM.

Take `O=c1c(-c2ccc(O)cc2)coc2cc(OCc3noc(-c4cc(F)cc(C(F)(F)F)c4)n3)ccc12` [PT-29, 7-({5-[3-fluoro-5-(trifluoromethyl)phenyl](1,2,4-oxadiazol-3-yl)}methoxy)-3-(4-hydroxyphenyl)chromen-4-one]: the IC50 is 10 nM. The same measure, in the same setting: under `CC(C)OC(=O)c1cccc(COc2ccc3c(=O)c(-c4ccc(O)cc4)coc3c2)c1` [PT-35, methylethyl 3-{[3-(4-hydroxyphenyl)-4-oxochromen-7-yloxy]methyl}benzoate] stands 20 nM.

The experiment is the same for the next values; noted with them: at 1 μM; read-out: hALDH2 inhibition (IC50 hALDH2 column).
On to `Cc1ccc(S(=O)(=O)Nc2ccc(-c3coc4cc(OCc5sc(-c6ccc(C(F)(F)F)cc6)nc5C)ccc4c3=O)cc2)cc1` [PT-5, 3-(4-{[(4-methylphenyl)sulfonyl]amino}phenyl)-7-({4-methyl-2-[4-(trifluoromethyl)phenyl](1,3-thiazol-5-yl)}methoxy)chromen-4-one], for which the inhibition at 1 µM amounted to 0.19%. `CS(=O)(=O)Nc1ccc(-c2coc3cc(OCc4nc(-c5cc(F)cc(C(F)(F)F)c5)no4)ccc3c2=O)cc1` [PT-8, 7-({3-[5-fluoro-3-(trifluoromethyl)phenyl](1,2,4-oxadiazol-5-yl)}methoxy)-3-{4-[(methylsulfonyl)amino]phenyl}chromen-4-one]: the inhibition at 1 µM stood at 57%. On the same count and under the same terms, the value for `O=c1c(-c2ccc(OCc3ccc(C(F)(F)F)nc3)cc2)coc2cc(OCc3cncc(C(F)(F)F)c3)ccc12` [PT-46, 7-{[5-(trifluoromethyl)(3-pyridyl)]methoxy}-3-(4-{[6-(trifluoromethyl)(3-pyridyl)]methoxy}phenyl)chromen-4-one] was 10%.

`CCOC(=O)c1cccc(-c2coc3cc(OCc4noc(-c5cc(F)cc(C(F)(F)F)c5)n4)ccc3c2=O)c1` [PT-3, ethyl 3-[7-({5-[3-fluoro-5-(trifluoromethyl)phenyl](1,2,4-oxadiazol-3-yl)}methoxy)-4-oxochromen-3-yl]benzoate]: the inhibition at 1 µM came to 22%. On the same count and under the same terms, under `O=c1c(-c2ccc(O)cc2)coc2cc(OCc3cc(-c4ccc(Cl)c(Cl)c4)on3)ccc12` [PT-96, 7-{[5-(3,4-dichlorophenyl)isoxazol-3-yl]methoxy}-3-(4-hydroxyphenyl)chromen-4-one] stands 47%; under `N#Cc1ccc(-c2coc3cc(OCc4noc(-c5cc(F)cc(C(F)(F)F)c5)n4)ccc3c2=O)cc1` [PT-1, 4-[7-({5-[3-fluoro-5-(trifluoromethyl)phenyl](1,2,4-oxadiazol-3-yl)}methoxy)-4-oxochromen-3-yl]benzenecarbonitrile], 17%.
